Reference: ChEMBL document CHEMBL1150944, “New glycosides from ajuga decumbens” (J Nat Prod, 1998)

Columns and labels:
Raji [1] = assay: Inhibition of TPA-induced EBV-early antigen activation in human Raji cells at 100 molar ratio after 48 hrs relative to TPA by indirect immunofluorescence technique; values are per cent of control; details: human gammaherpesvirus 4
Raji [2] = assay: Inhibition of TPA-induced EBV-early antigen activation in human Raji cells at 500 molar ratio after 48 hrs relative to TPA by indirect immunofluorescence technique; values are per cent of control; details: human gammaherpesvirus 4
[3] = Cytotoxicity against human Raji cells assessed as cell viability at 100 molar ratio after 48 hrs; format: cell-based; details: read-out: Activity
Raji [4] = assay: Inhibition of TPA-induced EBV-early antigen activation in human Raji cells at 1000 molar ratio after 48 hrs relative to TPA by indirect immunofluorescence technique; values are per cent of control; details: human gammaherpesvirus 4
[5] = Cytotoxicity against human Raji cells assessed as cell viability at 10 molar ratio after 48 hrs; format: cell-based; details: read-out: Activity
Raji [6] = assay: Inhibition of TPA-induced EBV-early antigen activation in human Raji cells at 10 molar ratio after 48 hrs relative to TPA by indirect immunofluorescence technique; values are per cent of control; details: human gammaherpesvirus 4
[7] = Cytotoxicity against human Raji cells assessed as cell viability at 1000 molar ratio after 48 hrs; format: cell-based; details: read-out: Activity
[8] = Cytotoxicity against human Raji cells assessed as cell viability at 500 molar ratio after 48 hrs; format: cell-based; details: read-out: Activity

SMILES | level, % of control (Raji [1]) | level, % of control (Raji [2]) | viability at 48 h, 100 molar ratio [3] | level, % of control (Raji [4]) | viability at 48 h, 10 molar ratio [5] | level, % of control (Raji [6]) | viability at 48 h, 1000 molar ratio [7] | viability at 48 h, 500 molar ratio [8]
CC(=O)O[C@@]1(C)C[C@@H](O)[C@]2(O)C=CO[C@@H](O[C@@H]3O[C@H](CO)[C@@H](O)[C@H](O)[C@H]3O)[C@@H]21 | 62.6% | 19.9% | > 80% | 0% | > 80% | 89.5% | 60% | > 80%
C[C@]1(O)C[C@@H](O)[C@]2(O)C=CO[C@@H](O[C@H]3O[C@H](CO)[C@@H](O)[C@H](O)[C@H]3O)[C@@H]21 | 80.1% | 52.7% |  | 0% |  | 100% |  | 
CC(CO)c1cc2c(c(O)c1O[C@@H]1O[C@H](CO)[C@@H](O)[C@H](O)[C@H]1O)[C@@]1(C)CCC[C@](C)(CO[C@@H]3O[C@H](CO)[C@@H](O)[C@H](O)[C@H]3O)[C@@H]1CC2 (stereo partly specified) [AJUGASIDE A] | 68.3% | 24.9% | > 80% | 0% | > 80% | 91% | 60% | > 80%
COc1ccc(CCO[C@@H]2O[C@H](CO)[C@@H](O)[C@H](O[C@@H]3O[C@@H](C)[C@H](O)[C@@H](O)[C@H]3O)[C@H]2O)cc1O [DARENDOSIDE A] | 81.6% | 53.8% | > 80% | 22.6% | > 80% | 100% | 70% | > 80%
COc1ccc(CCO[C@@H]2O[C@H](CO)[C@@H](OC(=O)/C=C/c3ccc(O)c(OC)c3)[C@H](O[C@@H]3O[C@@H](C)[C@H](O)[C@@H](O)[C@H]3O[C@@H]3O[C@H](CO)[C@H](O)[C@H](O)[C@H]3O)[C@H]2O)cc1O [GALACTOSYLMARTYNOSIDE] | 76% | 31.8% | > 80% | 0% | > 80% | 98.5% | 60% | > 80%
C[C@]1(O)C[C@@H](O)[C@]2(O)C=CO[C@@H](O[C@@H]3O[C@H](CO)[C@@H](O)[C@H](O)[C@H]3O)[C@@H]21 [HARPAGIDE] |  |  | > 80% |  | > 80% |  | 60% | > 80%
COc1ccc(CCO[C@@H]2O[C@H](CO)[C@@H](OC(=O)/C=C/c3ccc(O)c(OC)c3)[C@H](O[C@@H]3O[C@@H](C)[C@H](O)[C@@H](O)[C@H]3O)[C@H]2O)cc1O [MARTYNOSIDE A] | 66.4% | 31.7% | > 80% | 0% | > 80% | 89.4% | 60% | > 80%
CC(=O)O[C@@]1(C)CC[C@]2(O)C=CO[C@@H](O[C@@H]3O[C@H](CO)[C@@H](O)[C@H](O)[C@H]3O)[C@@H]21 [REPTOSIDE] | 71.3% | 22.4% | > 80% | 0% | > 80% | 90.3% | 60% | > 80%
